Earlier results in patent publication US7324926B2, “Methods for predicting chemosensitivity or chemoresistance” (Whitehead Institute for Biomedical Research, priority 1999, dated 2008).

Tests used:
[1] = system: ovarian cancer cell lines; details: ovarian cancer cell lines of the NCI-60 panel; resistant = log10(GI50) at least 0.8 SD above the mean
[2] = system: central nervous system (CNS) cell lines; details: CNS cell lines of the NCI-60 panel; sensitive = log10(GI50) at least 0.8 SD below the mean

SMILES: C=C1[C@@H](C)[C@H]2[C@H](Cc3ccccc3)NC(=O)[C@]23[C@H](OC(C)=O)/C=C/[C@@](C)(O)C(=O)[C@@H](C)C/C=C/[C@H]3[C@@H]1O [cytochalasin D, Cytochalasin D]
- cytochalasin D sensitivity class of cell lines (from GI50) [1]: resistant
- cytochalasin D sensitivity class of cell lines (from GI50) [2]: sensitive
